Source: US20230200394A1, “SELECTIVE HERBICIDES BASED ON SUBSTITUTED ISOXAZOLIN CARBOXAMIDES AND BENOXACOR” (BAYER AKTIENGESELLSCHAFT, priority 2020, published 2023)

Tested on: ZEAMA Sileno
Assay: Safener seed treatment; pre-emergence herbicide application, visual scoring of % crop damage in greenhouse
Assay type: in vivo, maize
Details: for HER effect [%] / HER effect + SAF [%]: crop damage, pre-emergence; for HER effect [%]: herbicide alone (no safener); for HER effect + SAF [%]: seed treated with Benoxacor 0.25 g a.i./kg seed; for Reduction [Difference]: herbicide damage without safener minus with Benoxacor 0.25 g a.i./kg seed; for Reduction [%]: reduction of herbicide damage by Benoxacor 0.25 g a.i./kg seed, relative to damage without safener
Experimental: Seed Treatment; Pre-Emergence For the safener seed treatment, sufficient seeds of the respective crops (spring wheat, TRZAS; spring barley, HORVS; maize, ZEAMA) were weighed into screw top glass bottles approximately twice the volume of the seeds. The specified safeners, formulated as wettable powder (WP) were weighed out so that the specified rates (g a.i./kg seed) would be obtained, dissolved in water (1 ml water per 10 g of seeds), and added to the seeds to produce a slurry. The bottles were capped and then placed in an overhead shaker (set at medium speed for ca. 60 minutes) so that the seeds were evenly coated with the slurry. The bottles were uncapped and the seeds were either placed on paper and dried for an interval of 3-4 hours prior to sowing, or directly sown. Seeds were placed in sandy loam soil in pots of a diameter of 7-8 cm, and covered with soil. Pre-emergence application of the specified herbicides was done subsequently, on two sets of plants: a) seed treatment with safener, as described above b) no safener treatment The herbicides were formulated as WP and was sprayed onto the soil surface as an aqueous suspension at an equivalent water application rate of 300 l/ha. After application, the test plants were kept in the greenhouse under good growth conditions. At intervals up to 4 weeks after application (=28 days after treatment; DAT), % crop damage observed on the treated plants was scored visually in comparison to control plants that had not received any safener or herbicide treatment. Values in the table below are mean values of at least 2 replicates.

[1] = HER dose 40 g a.i./ha, assessment 26 DAT
[2] = HER dose 40 g a.i./ha, assessment 14 DAT
[3] = HER dose 80 g a.i./ha, assessment 14 DAT

Compound	HER effect [%] [1]	HER effect + SAF [%] (HER dose 40 g a.i./ha, 26 DAT)	Reduction [Difference] (HER dose 40 g a.i./ha, 26 DAT)	Reduction [%] (HER dose 40 g a.i./ha, 26 DAT)	HER effect [%] [2]	HER effect [%] [3]	HER effect [%] (HER dose 80 g a.i./ha, assessment 26 DAT)	HER effect + SAF [%] (HER dose 40 g a.i./ha, 14 DAT)	HER effect + SAF [%] (HER dose 80 g a.i./ha, 14 DAT)	HER effect + SAF [%] (HER dose 80 g a.i./ha, 26 DAT)	Reduction [Difference] (HER dose 40 g a.i./ha, 14 DAT)	Reduction [Difference] (HER dose 80 g a.i./ha, 14 DAT)	Reduction [Difference] (HER dose 80 g a.i./ha, 26 DAT)	Reduction [%] (HER dose 40 g a.i./ha, 14 DAT)	Reduction [%] (HER dose 80 g a.i./ha, 14 DAT)	Reduction [%] (HER dose 80 g a.i./ha, 26 DAT)
C=CC1(C(=O)NC2COC(C(=O)OC)C2)CC(c2cc(F)cc(F)c2)=NO1 (mixture of isomers) [Example 1.68]	95%	60%	35	37%	–	–	–	–	–	–	–	–	–	–	–	–
C=CC1(C(=O)NC2C=CC(C(=O)OC)C2)CC(c2cc(F)cc(F)c2)=NO1 (stereo not shown) [Example 1.26]	50%	5%	45	90%	25%	70%	70%	5%	35%	30%	20	35	40	80%	50%	57%
CC1(C(=O)NC2C=CC(C(=O)O)C2)CC(c2cc(F)cc(F)c2)=NO1 (stereo not shown) [Example 1.36]	–	–	–	–	60%	83%	–	40%	60%	–	20	23	–	33%	28%	–
